Test results from the supplement of paper PMC4862054.
“And” between values parts separate entries of the source, which are not always exact repeats. Identical values can stand only once.

Tests used:
Conditions in all cases: incubation time: 72 h
MDA-MB-436 [1] = experiment: normalised viability (% of control), CellTiter-Blue; higher = more viable cells (100 = DMSO, 0 = benzethonium chloride kill control)
Protocol: (§1)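 DSRT, CellTiter-Blue viability, 72 h incubation. Signal is normalised to DMSO and benzethonium chloride controls. Value is the normalised response at dose 1.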

HCC1937 = experiment: as above
Protocol: as §1

MDA-MB-231 [2] = experiment: as above
Protocol: as §1

HCC1143 = experiment: as above
Protocol: as §1

MDA-MB-453 [3] = experiment: as above
Protocol: as §1

Hs578T = experiment: as above
Protocol: as §1

BT-474 [4] = experiment: as above
Protocol: as §1

DU-4475 [5] = experiment: as above
Protocol: as §1

HCC1599 [6] = experiment: as above
Protocol: as §1

BT-549 = experiment: as above
Protocol: as §1

MDA-MB-468 = experiment: as above
Protocol: as §1

MFM-223 = experiment: as above
Protocol: as §1

CAL-148 = experiment: as above
Protocol: as §1

CAL-85-1 [7] = experiment: as above
Protocol: as §1

CAL-120 = experiment: as above
Protocol: as §1

HDQ-P1 [8] = experiment: as above
Protocol: as §1

CAL-51 = experiment: as above
Protocol: as §1

SK-BR-3 [9] = experiment: as above
Protocol: as §1

MDA-MB-436 [10] = experiment: drug sensitivity score (DSS), CellTiter-Blue viability (DSS (AUC-based score)); higher = stronger viability inhibition; extreme values may be limits of the assay
Protocol: (§2)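 DSRT with the CellTiter-Blue (resazurin reduction) viability readout, fluorescence 560/590 nm, 72 h incubation. Plates were normalised to DMSO and benzethonium chloride controls. DSS is computed from the area under the fitted dose-response curve (5 or 9 concentrations).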

MDA-MB-231 [11] = experiment: as above
Protocol: as §2

MDA-MB-453 [12] = experiment: as above
Protocol: as §2

BT-474 [13] = experiment: as above
Protocol: as §2

DU-4475 [14] = experiment: as above
Protocol: as §2

HCC1599 [15] = experiment: as above
Protocol: as §2

CAL-85-1 [16] = experiment: as above
Protocol: as §2

HDQ-P1 [17] = experiment: as above
Protocol: as §2

SK-BR-3 [18] = experiment: as above
Protocol: as §2

Row | SMILES | normalised viability (MDA-MB-436 [1]; 1 nM) | normalised viability (HCC1937; 1 nM) | normalised viability (MDA-MB-231 [2]; 1 nM) | normalised viability (HCC1143; 1 nM) | normalised viability (MDA-MB-453 [3]; 1 nM) | normalised viability (Hs578T; 1 nM) | normalised viability (BT-474 [4]; 1 nM) | normalised viability (DU-4475 [5]; 1 nM) | normalised viability (HCC1599 [6]; 1 nM) | normalised viability (BT-549; 1 nM) | normalised viability (MDA-MB-468; 1 nM) | drug sensitivity score (MDA-MB-436 [10]) | drug sensitivity score (MDA-MB-231 [11]) | drug sensitivity score (MDA-MB-453 [12]) | drug sensitivity score (BT-474 [13]) | drug sensitivity score (DU-4475 [14]) | drug sensitivity score (HCC1599 [15]) | drug sensitivity score (CAL-85-1 [16]) | drug sensitivity score (HDQ-P1 [17]) | drug sensitivity score (SK-BR-3 [18]) | further results
1 | O=C(CCBr)N1CCN(C(=O)CCBr)CC1 [Pipobroman] | 107% | 87.4% | 97.8% | 94.7% | 108% | 95.3% | 98.9% | 111% | 103% | 83.2% | 95% | 0 | 0 | 2.49 | 0 | 0 | 0 | 0 | 0 | 0 | normalised viability (MFM-223; 1 nM): 82.8%; normalised viability (CAL-148; 1 nM): 115%; normalised viability (CAL-85-1 [7]; 1 nM): 96%; normalised viability (CAL-120; 1 nM): 89.1%; normalised viability (HDQ-P1 [8]; 1 nM): 99.3%; normalised viability (CAL-51; 1 nM): 112%; normalised viability (SK-BR-3 [9]; 1 nM): 92.1%
2 | CNC(=O)c1cc(Oc2ccc(NC(=O)Nc3ccc(Cl)c(C(F)(F)F)c3)cc2)ccn1 [Sorafenib] |  |  |  |  |  |  |  |  |  |  |  | 0 | 0 | 0 | 0 | 0 | 0 |  | 0 | 0 | normalised viability (MDA-MB-436 [1]; 0.1 nM): 88% and 95.8%; normalised viability (HCC1937; 0.1 nM): 101% and 85.2%; normalised viability (MDA-MB-231 [2]; 0.1 nM): 92.8% and 93.4%; normalised viability (HCC1143; 0.1 nM): 109% and 96%; normalised viability (MDA-MB-453 [3]; 0.1 nM): 109% and 102%; normalised viability (Hs578T; 0.1 nM): 113% and 99%; normalised viability (BT-474 [4]; 0.1 nM): 109% and 85.3%; normalised viability (DU-4475 [5]; 0.1 nM): 96.9% and 115%; normalised viability (HCC1599 [6]; 0.1 nM): 106% and 123%; normalised viability (BT-549; 0.1 nM): 119% and 96%; normalised viability (MFM-223; 0.1 nM): 102% and 105%; normalised viability (CAL-148; 0.1 nM): 112% and 109%; normalised viability (CAL-85-1 [7]; 0.1 nM): 104% and 103%; normalised viability (CAL-120; 0.1 nM): 97.8% and 95.4%; normalised viability (CAL-51; 0.1 nM): 111% and 95.4%; normalised viability (SK-BR-3 [9]; 0.1 nM): 103% and 90.7%
3 | Cc1c(CN2CCN(C(=O)[C@H](C)O)CC2)sc2c(N3CCOCC3)nc(-c3cnc(N)nc3)nc12 [GDC-0980] | 84.5% | 88.1% | 96.6% | 94.9% | 96.5% | 102% | 103% | 104% | 95.5% | 91.7% | 99.6% | 10.4 | 18.5 | 22.8 | 15.6 | 12.6 | 15.1 | 14.8 | 19.2 | 22.4 | normalised viability (MFM-223; 1 nM): 96.8%; normalised viability (CAL-148; 1 nM): 106%; normalised viability (CAL-85-1 [7]; 1 nM): 83.5%; normalised viability (CAL-120; 1 nM): 96.3%; normalised viability (HDQ-P1 [8]; 1 nM): 95.9%; normalised viability (CAL-51; 1 nM): 101%; normalised viability (SK-BR-3 [9]; 1 nM): 92.2%
4 | O=C(Nc1c[nH]nc1-c1nc2ccc(CN3CCOCC3)cc2[nH]1)NC1CC1 [AT9283] | 98.8% | 95.6% | 91.6% | 87.1% | 100% | 117% | 96.6% | 95.5% | 101% | 98.5% | 114% | 8.22 | 13.2 | 17.4 | 8.49 | 22.7 | 7.51 | 10 | 12.4 | 17.5 | normalised viability (MFM-223; 1 nM): 102%; normalised viability (CAL-148; 1 nM): 91.3%; normalised viability (CAL-85-1 [7]; 1 nM): 88.9%; normalised viability (CAL-120; 1 nM): 87.1%; normalised viability (HDQ-P1 [8]; 1 nM): 103%; normalised viability (CAL-51; 1 nM): 107%; normalised viability (SK-BR-3 [9]; 1 nM): 104%
5 | c1cc(CN2CCCNCCNCCCNCC2)ccc1CN1CCCNCCNCCCNCC1 [Plerixafor] |  |  |  |  |  |  |  |  |  |  |  | 0 | 0 | 0 | 0 | 0 | 0 | 0 | 0 | 0 | normalised viability (MDA-MB-436 [1]; 0.25 nM): 110%; normalised viability (HCC1937; 0.25 nM): 82.5%; normalised viability (MDA-MB-231 [2]; 0.25 nM): 93.8%; normalised viability (HCC1143; 0.25 nM): 90.9%; normalised viability (MDA-MB-453 [3]; 0.25 nM): 129%; normalised viability (Hs578T; 0.25 nM): 104%; normalised viability (BT-474 [4]; 0.25 nM): 84%; normalised viability (DU-4475 [5]; 0.25 nM): 105%; normalised viability (HCC1599 [6]; 0.25 nM): 107%; normalised viability (BT-549; 0.25 nM): 86.8%; normalised viability (MDA-MB-468; 0.25 nM): 96.5%; normalised viability (MFM-223; 0.25 nM): 99%; normalised viability (CAL-148; 0.25 nM): 87.3%; normalised viability (CAL-85-1 [7]; 0.25 nM): 84.2%; normalised viability (CAL-120; 0.25 nM): 90%; normalised viability (HDQ-P1 [8]; 0.25 nM): 104%; normalised viability (CAL-51; 0.25 nM): 103%; normalised viability (SK-BR-3 [9]; 0.25 nM): 91.5%
6 | Cn1cc(CNCC2CCN(c3ncc(C(=O)NO)cn3)CC2)c2ccccc21 |  |  |  |  |  |  |  |  |  |  |  | 5.46 | 15 | 27.8 | 19.9 | 21.1 | 16.5 | 19.1 | 16.5 | 25.8 | normalised viability (MDA-MB-436 [1]; 0.1 nM): 87.9%; normalised viability (HCC1937; 0.1 nM): 106%; normalised viability (MDA-MB-231 [2]; 0.1 nM): 95.6%; normalised viability (HCC1143; 0.1 nM): 95.7%; normalised viability (MDA-MB-453 [3]; 0.1 nM): 98.8%; normalised viability (Hs578T; 0.1 nM): 120%; normalised viability (BT-474 [4]; 0.1 nM): 98.1%; normalised viability (DU-4475 [5]; 0.1 nM): 97.6%; normalised viability (HCC1599 [6]; 0.1 nM): 101%; normalised viability (BT-549; 0.1 nM): 88.6%; normalised viability (MDA-MB-468; 0.1 nM): 91.1%; normalised viability (MFM-223; 0.1 nM): 89.5%; normalised viability (CAL-148; 0.1 nM): 103%; normalised viability (CAL-85-1 [7]; 0.1 nM): 84.9%; normalised viability (CAL-120; 0.1 nM): 89.2%; normalised viability (HDQ-P1 [8]; 0.1 nM): 83.6%; normalised viability (CAL-51; 0.1 nM): 105%; normalised viability (SK-BR-3 [9]; 0.1 nM): 97.5%
